From patent US20110046147A1, “17BETA-HYDROXYSTEROID DEHYDROGENASE TYPE 1 INHIBITORS FOR THE TREATMENT OF HORMONE-RELATED DISEASES” (UNIVERSITAT DES SAARLANDES, priority 2007, published 2011)

Tests used:
17β-HSD2 = target: T1, 17β-HSD2 (Homo sapiens, UniProt P37059); assay: Inhibition of 17β-HSD2 (estradiol to estrone, radio-HPLC); assay type: biochemical; settings: human placenta microsome fraction, 500 nM estradiol, NAD+ 1500 μM
T1 construct: from tissue; host or cells: human placenta, microsome fraction
T1 sequence (P37059 1-387): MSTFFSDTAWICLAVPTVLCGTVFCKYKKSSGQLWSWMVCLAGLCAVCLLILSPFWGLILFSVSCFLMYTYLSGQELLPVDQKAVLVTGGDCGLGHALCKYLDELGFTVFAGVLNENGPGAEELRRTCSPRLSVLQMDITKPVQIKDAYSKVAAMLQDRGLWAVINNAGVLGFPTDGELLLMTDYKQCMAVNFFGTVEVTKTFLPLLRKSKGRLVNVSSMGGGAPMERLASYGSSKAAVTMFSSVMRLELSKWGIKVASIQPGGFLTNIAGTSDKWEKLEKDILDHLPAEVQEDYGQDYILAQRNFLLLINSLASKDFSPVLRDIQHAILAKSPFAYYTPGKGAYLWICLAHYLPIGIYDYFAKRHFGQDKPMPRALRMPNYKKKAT

CYP2C19 = target: T2, CYP2C19 (Homo sapiens, UniProt P33261); assay: Inhibition of hepatic CYP enzymes: CYP2C19; assay type: biochemical; settings: read-out: CYP2C19 IC50 (mean ± SD)
T2 construct: purchased Becton Dickinson GmbH (Heidelberg)
Source text: (§1) Drug interactions (inhibition of hepatic CYP enzymes): The inhibition of six human hepatic cytochrome P450 enzymes by selected compounds was examined by means of the kit supplied by Becton Dickinson GmbH (Heidelberg).

CYP3A4 = target: T3, CYP3A4 (Homo sapiens, UniProt P08684); assay: Inhibition of hepatic CYP enzymes: CYP3A4; assay type: biochemical; settings: read-out: CYP3A4 IC50 (mean ± SD)
T3 construct: purchased Becton Dickinson GmbH (Heidelberg)
Source text: as §1

CaCo2 transport assay = assay type: in vitro ADME; settings: human, Caco-2; 50 μM in donor compartment; read-out: Papp [cm/sec ± rel. SD]
Description: Performance of selected compounds in a CaCo2 assay: Caco-2 cell culture and transport experiments were performed according to Yee (Yee, S., Pharm. Res., 14(6): 763-766 (1997)), but slight modifications were introduced. The cultivation times were reduced from 21 to 10 days by increasing the sowing density from 6.3·10^4 to 1.65·10^5 cells per well. […] The initial concentration of the compounds in the donor compartment was 50 μM (in buffer with 1% ethanol or DMSO). Samples were taken from the acceptor side after 60, 120 and 180 min and from the donor side after 0 and 180 min. For glycoprotein P (P-gp) studies, bidirectional experiments were performed. The absorptive and secretory permeabilities (Papp (a-b) and Papp (b-a)) were determined. Thus, erythromycin was used as a substrate, and verapamil was used as an inhibitor of P-gp. Each experiment was performed in triplicate. The integrity of the monolayer was determined by means of TEER (transepithelial electric resistance) and the permeability for each assay was determined using Lucifer Yellow. All samples of the CaCo-2 transport experiments were analyzed by means of LC/MS/MS after dilution with buffer (1:1 with 2% acetic acid). The apparent permeability coefficient (Papp) was calculated by means of the formula given below, where dQ/dt represents the recovery rate of the mass in the acceptor compartment, A represents the surface area of the transwell membrane, and c0 represents the initial concentration in the donor compartment.

in vitro = settings: rat, microsomes, pH 7.4
Description: The reaction is started by adding 20 μl of the compound to be tested in 20% AcCN to the microsome/buffer mixture preincubated at 37° C. After 0, 15, 30 and 60 minutes, 200 μl of sample solution is withdrawn and subjected to AcCN precipitation. The isolation of the compounds is effected by adding 200 μl of AcCN that contains the internal standard (1 μM) to 200 μl of sample solution and calibration standard. After shaking for 10 s and centrifugation at 4000 g, an aliquot of the supernatant is subjected to LC-MS/MS. Two controls are included: a positive control with 7-ethoxycoumarin as a reference to verify the microsomal enzyme activity, and a negative control in which microsomes are used that were heated for 25 minutes without a regenerating system, in order to ensure that the loss of substance is actually due to metabolization.
The amount of compound in a sample is expressed as the percent fraction of the compound remaining as compared to time t=0 (100%). The percent fraction is plotted versus time.

T2 sequence (P33261 whole entry): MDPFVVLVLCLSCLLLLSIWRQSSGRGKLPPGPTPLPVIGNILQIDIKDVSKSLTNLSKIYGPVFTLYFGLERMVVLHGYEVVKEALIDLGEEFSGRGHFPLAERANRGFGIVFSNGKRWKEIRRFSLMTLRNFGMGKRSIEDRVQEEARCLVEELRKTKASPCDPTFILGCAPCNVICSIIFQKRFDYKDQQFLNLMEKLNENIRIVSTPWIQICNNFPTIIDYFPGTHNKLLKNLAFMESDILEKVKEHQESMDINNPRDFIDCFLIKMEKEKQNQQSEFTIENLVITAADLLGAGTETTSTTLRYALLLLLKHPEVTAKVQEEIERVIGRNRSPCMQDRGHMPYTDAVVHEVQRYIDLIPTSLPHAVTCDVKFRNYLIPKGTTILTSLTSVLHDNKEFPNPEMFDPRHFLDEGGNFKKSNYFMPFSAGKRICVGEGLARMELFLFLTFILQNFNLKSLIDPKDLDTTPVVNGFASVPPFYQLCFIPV
T3 sequence (P08684 whole entry): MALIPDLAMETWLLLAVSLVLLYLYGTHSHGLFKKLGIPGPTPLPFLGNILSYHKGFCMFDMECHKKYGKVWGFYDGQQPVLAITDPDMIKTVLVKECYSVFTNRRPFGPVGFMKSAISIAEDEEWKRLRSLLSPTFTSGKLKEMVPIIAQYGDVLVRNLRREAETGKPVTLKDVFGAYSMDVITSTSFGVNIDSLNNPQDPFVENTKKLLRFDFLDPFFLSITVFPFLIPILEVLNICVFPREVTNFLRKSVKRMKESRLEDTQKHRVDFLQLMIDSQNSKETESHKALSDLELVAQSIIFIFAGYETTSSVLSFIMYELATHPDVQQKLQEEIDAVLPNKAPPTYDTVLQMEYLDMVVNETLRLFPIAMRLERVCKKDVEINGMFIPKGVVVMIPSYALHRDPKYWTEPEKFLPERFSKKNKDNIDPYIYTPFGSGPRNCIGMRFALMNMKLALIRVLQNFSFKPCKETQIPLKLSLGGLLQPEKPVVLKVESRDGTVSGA

| IC50 (17β-HSD2) | IC50 (CYP2C19) | IC50 (CYP3A4) | Papp at 180 min, 50 μM (CaCo2 transport assay) | half-life (in vitro) | Half life (in vitro) | Structure (SMILES) |
| --- | --- | --- | --- | --- | --- | --- |
| 1800 nM | 3370 ± 120 nM | 7360 ± 490 nM | 11.5 ×10⁻⁶ cm/s | 10.6 min |  | Oc1ccc(-c2ccsc2-c2cccc(O)c2)cc1 [Compound 28, 3-[3-(4-Hydroxyphenyl)-2-thienyl]phenol] |
| 2300 nM | 4200 ± 290 nM | 2130 ± 130 nM |  |  | 22.7 min | Oc1cccc(-c2ccc(-c3cccc(O)c3)cc2)c1 [Compound 42, [1,1′,4′,1″]Terphenyl-3,3′-diol] |
